Consider three compounds from article PMC7070731, “Cytotoxic Activity of Organotin(IV) Derivatives with Triazolopyrimidine Containing Exocyclic Oxygen Atoms” (Molecules, 2020).

One may read the IC50 as the concentration needed to halve the response being measured.

One test concerns HCT-116 (human colorectal carcinoma) cells. The experiment in a line: MTT cytotoxicity assay, HCT-116. It is filed as cell-based. The conditions noted are these: 24 h, 0.01–1 µM range. How it is done: (§1) HTC116 (human colorectal carcinoma), HepG2 (human hepatocellular carcinoma), MCF-7 (human breast cancer), 16-HBE (human bronchial epithelium) and Caco-2 (human colorectal carcinoma) cell lines were purchased from American Type Culture Collection, Rockville, MD, USA. All cell lines were grown in RPMI medium supplemented with L-glutamine (2 mM), 10% fetal bovine serum (FBS), penicillin (100 U/mL), streptomycin (100 µg/mL) and gentamicin (5 μg/mL). Cells were maintained in log phase by seeding twice a week at a density of 3 × 10^8 cells/L in humidified 5% CO2 atmosphere, at 37 °C. In all experiments, after plating, cells were allowed to adhere overnight and then treated with the compounds or vehicle alone (control cells), whereas Caco-2 cells were treated 15 days after confluence, at which time the cells are differentiated in normal intestinal-like cells. No differences were found between cells treated with DMSO 0.1% and untreated cells in terms of cell number and viability.
(§2) Cytotoxic activity of the organotin compounds against human tumor cell lines (HCT-116, HepG2 and MCF-7) and human normal cells (16-HBE and intestinal-like differentiated Caco2 cells) was determined using the MTT colorimetric assay based on the reduction of 3-(4,5-dimethyl-2-thiazolyl)bromide-2,5-diphenyl-2H-tetrazolium (MTT) to purple formazan using mitochondrial dehydrogenases of living cells, as reported. This method is commonly used to illustrate inhibition of cellular proliferation. Monolayer cultures were treated for 24 h with various concentrations (0.01-1 µM) of the drugs. Cisplatin was used for comparison. Briefly, all cell lines were seeded at 1.0 × 10^4 cells/well in 96-well plates containing 200 μL RPMI. When appropriated, cells were washed with fresh medium and incubated with the compounds in RPMI. After incubation, cells were washed, and 50 μL FBS-free medium containing 5 mg/mL MTT was added. The medium was discarded after a 2 h incubation at 37 °C by centrifugation, and formazan blue formed in the cells was dissolved in DMSO. The absorbance, measured at 570 nm in a microplate reader (Bio-RAD, Hercules, CA, USA) of MTT formazan of control cells was taken as 100% of viability. The growth inhibition activity of compounds was estimated by comparison with the not-treated control. The values for the inhibitory concentration for 50% of the tested compounds (IC50) were calculated using a sigmoidal model using GraphPad Prism 5.02 from GraphPad Software (San Diego, CA, USA). Each experiment was repeated three times in triplicate to obtain the mean values.
A general note: Tetrazolium dyes change colour on reduction, which living cells bring about.
Consider `Cc1cc([O][Sn]([CH3])([CH3])[CH3])n2ncnc2n1` [Compound 3, Me3Sn(mtpO)], for which the “Influence on cell growth / viability, HCT-116” value was “no influence on cell growth”.
For the compound `[CH3][Sn]([CH3])([CH3])[O]c1ccn2ncnc2n1` [Compound 1, Me3Sn(5tpO)], the “Influence on cell growth / viability, HCT-116” value was “no influence on cell growth”.

The same test, now with this note: 24 h treatment, read-out: IC50 (nM ± SD) HCT-116.
Consider `N.N.[Cl][Pt][Cl]` [Cisplatin, reference compound], for which the IC50 amounted to 46000 nM.
Turning to `Cc1cc([O][Sn]([CH3])([CH3])[CH3])n2ncnc2n1` [Compound 3, Me3Sn(mtpO)], the half-inhibitory concentration (IC50) is more than 1000 nM.
Take `[CH3][Sn]([CH3])([CH3])[O]c1ccn2ncnc2n1` [Compound 1, Me3Sn(5tpO)]: the IC50 was more than 1000 nM.

The test system of the next test is HepG2 (human hepatocellular cancer) cells. The experiment in a line: MTT cytotoxicity assay, HepG2. The test is classed as cell-based. The conditions noted are these: 24 h, 0.01–1 µM range. How it is done: as §1, §2
Take `Cc1cc([O][Sn]([CH3])([CH3])[CH3])n2ncnc2n1` [Compound 3, Me3Sn(mtpO)]: the “Influence on cell growth / viability, HepG2” value is reported as “no influence on cell growth”.
Take `[CH3][Sn]([CH3])([CH3])[O]c1ccn2ncnc2n1` [Compound 1, Me3Sn(5tpO)]: the “Influence on cell growth / viability, HepG2” value is reported as “no influence on cell growth”.

The test is the same for the next values; noted with them: 24 h treatment, read-out: IC50 (nM ± SD) HepG2.
With `N.N.[Cl][Pt][Cl]` [Cisplatin, reference compound], the IC50 stood at 65000 nM.
For the compound `Cc1cc([O][Sn]([CH3])([CH3])[CH3])n2ncnc2n1` [Compound 3, Me3Sn(mtpO)], the IC50 was more than 1000 nM.
`[CH3][Sn]([CH3])([CH3])[O]c1ccn2ncnc2n1` [Compound 1, Me3Sn(5tpO)]: the IC50 was more than 1000 nM.

The subject of another test is MCF-7 (human breast cancer) cells. The experiment in a line: MTT cytotoxicity assay, MCF-7. The test is classed as cell-based. The following applies: 24 h, 0.01–1 µM range. As to the method:
as §1, §2
`Cc1cc([O][Sn]([CH3])([CH3])[CH3])n2ncnc2n1` [Compound 3, Me3Sn(mtpO)]: the “Influence on cell growth / viability, MCF-7” value is recorded as “no influence on cell growth”.
As to `[CH3][Sn]([CH3])([CH3])[O]c1ccn2ncnc2n1` [Compound 1, Me3Sn(5tpO)], the “Influence on cell growth / viability, MCF-7” value is “no influence on cell growth”.

Still in this test, the particulars now being: 24 h treatment, read-out: IC50 (nM ± SD) MCF-7.
Regarding `N.N.[Cl][Pt][Cl]` [Cisplatin, reference compound], the IC50 was found to be 10000 nM.
Consider `Cc1cc([O][Sn]([CH3])([CH3])[CH3])n2ncnc2n1` [Compound 3, Me3Sn(mtpO)], for which the IC50 is more than 1000 nM.
For `[CH3][Sn]([CH3])([CH3])[O]c1ccn2ncnc2n1` [Compound 1, Me3Sn(5tpO)], the 50% inhibitory concentration (IC50) was more than 1000 nM.

A further test relates to HCT-116 cells. Put plainly: Mitochondrial transmembrane potential, DiOC6 flow cytometry. The conditions noted are these: 20 μM, 24 h, control 3.2%. The test is classed as cell-based, human. As to the method:
Mitochondrial transmembrane potentials (Δψm) were assessed using flow cytofluorometry, with the cationic lipophilic dye 3,3′-dihexyloxacarbocyanine iodide(3) (DiOC6) (Molecular Probes, Inc., Life Technologies Italia, Monza, Italy), which accumulates in the mitochondrial matrix. Changes in mitochondrial membrane potential are indicated by a reduction in the DiOC6-induced fluorescence intensity. After 24 h treatment, cells were incubated with DiOC6 at a 40 nmol/L final concentration, for 15 min at 37 °C. After centrifugation, cells were washed with phosphate buffer saline (PBS) and suspended in 500 μL PBS. Then, samples of 1.0 × 10^4 cells were subjected to FACS analysis.
Background: Flow cytometry measures light scatter and fluorescence of single cells or particles in a stream.
In the case of `N.N.[Cl][Pt][Cl]` [Cisplatin, reference compound], the “Cells with dissipated mitochondrial membrane potential” value is recorded as 17.4%.

The subject of the next test is HCT-116 cells. Put plainly: Intracellular ROS, DCFH-DA flow cytometry. The test is classed as cell-based, human. The following applies: 20 μM, 24 h, control 1.9%. As to the method:
ROS level was monitored by measuring fluorescence changes that resulted from intracellular oxidation of 2′,7′-dichlorofluorescin diacetate (DCFH-DA). DCFH-DA, at 10 μM final concentration, was added to the cell medium 30 min before the end of the treatment. The cells were collected using centrifugation for 5 min at 2000 rpm at 4 °C, washed, suspended in PBS and immediately subjected to FACS analysis. At least 1 × 10^4 cells were analyzed for each sample.
In the case of `N.N.[Cl][Pt][Cl]` [Cisplatin, reference compound], the “AY, ROS production (DCFH-DA fluorescent cells)” value came out at 23.5%.
